Reference: patent US8778413B2, “Dosing regimens and methods of treatment using carbon monoxide” (Ikaria, Inc., priority 2010, dated 2014)
“Also recorded” adds a separate entry of the source. Read-outs that look alike come from different tables or passages of the source. Marks after values point to notes of the source that are not given here.

Experiments:
[1] = water at 0° C.; cited from earlier work
[2] = system: renal function of renal transplant recipients; experiment: Transplanted organ (renal) function: serum creatinine and calculated GFR; type: in vivo, human
Experimental: (§1) Study subjects receive either (i) 12-48 hours post-operatively following renal transplant, a single dose of placebo (i.e., O2 30% in nitrogen) or carbon monoxide (Covox 12 mg/L) at 0.7 mg/kg or 2 mg/kg via inhalation for a time period of 1 hour, or (ii) intra-operatively during renal transplant surgery (at the time of re-anastomosis), a dose of placebo (i.e., O2 30% in nitrogen), 2 mg/kg or 3 mg/kg carbon monoxide via inhalation for a time period of 1 hour.
Organ function is assessed in subjects using pharmacodynamic markers representing renal functions. In particular, serum creatinine (SCr) levels are measured (using conventional methods) and glomerular filtration rate (GFR) is calculated via MDRD (GFR (mL/min/1.73 m2)=175×(Scr)−1.154× (Age)−0.203×(0.742 if female)×(1.212 if African American); as described by Levey et al., “Chronic Kidney Disease Epidemiology Collaboration. Using standardized serum creatinine values in the modification of diet in renal disease study equation for estimating glomerular filtration rate,” Ann Intern Med, 145(4):247-254 (2006)).

[3] = system: renal transplant recipients; experiment: Neurocognitive functions (digit vigilance speed, numeric working memory accuracy, picture recognition); type: in vivo, human; settings: up to 3 mg/kg inhaled 1 hour, up to 24 weeks post-treatment
Experimental: FIG. 5, FIG. 6 and FIG. 7 illustrate the impact of carbon monoxide treatment on neurocognitive functions over 6 months in subjects receiving kidney transplants following inhalation of placebo, 0.7 mg/kg, 2 mg/kg or 3 mg/kg carbon monoxide through the evaluation of individual digit vigilance speed (FIG. 5), numeric working memory accuracy (FIG. 6) and picture recognition (FIG. 7). The CO doses were administered either 12-48 hours post-operatively following renal transplant (placebo, 0.7 mg/kg or 2 mg/kg) or intra-operatively during renal transplant surgery (placebo, 2 mg/kg or 3 mg/kg). Visit #1: Screening; Visit #4: Day 0; Visit #6: Day 1; Visit #14-16: Day 28; Visit #17-18: Follow-up Weeks 16-24. The open symbols reflect individual observations, the thin lines reflect individual trends and thick lines reflect the average trend based on linear regression. […]
All renal transplant recipients receiving carbon monoxide up to 3 mg/kg carbon monoxide (both intra-operatively and post-operatively dosed) are evaluated for safety. […] As presented herein, the relationship between carbon monoxide exposure (COHb) and cardiovascular function (i.e., QTc) at 8 hours post-treatment of subjects receiving inhaled carbon monoxide or placebo (FIG. 4) is assessed via a pharmacokinetic-pharmacodynamic (PKPD) approach. […]

[4] = system: renal transplant recipients; experiment: Safety of carbon monoxide dosing regimens (AEs, ECG, QTc); type: in vivo, human
Experimental: as §1
All renal transplant recipients receiving carbon monoxide up to 3 mg/kg carbon monoxide (both intra-operatively and post-operatively dosed) are evaluated for safety. […] The most sensitive organs to carbon monoxide poisoning are heart and brain. As presented herein, the relationship between carbon monoxide exposure (COHb) and cardiovascular function (i.e., QTc) at 8 hours post-treatment of subjects receiving inhaled carbon monoxide or placebo (FIG. 4) is assessed via a pharmacokinetic-pharmacodynamic (PKPD) approach. Similarly, as presented herein, the relationship between subjects receiving one of various inhaled carbon monoxide doses or placebo and key neurocognitive functions (i.e., individual digit vigilance speed (FIG. 5), numeric working memory accuracy (FIG. 6) and picture recognition (FIG. 7)) up to 24 weeks post-treatment is assessed via a pharmacokinetic-pharmacodynamic (PKPD) approach.

[5] = type: in vivo, human; settings: for CL/F, based on net COHb: intra-operative
Experimental: as §1
COHb exposure is measured using conventional methods. For example, COHb exposure can be ascertained by measuring the amount present in venous blood using a device known as a CO-OXI meter. For both post- and intra-operative dosing regimens, dose-dependency of COHb Cmax and AUC is evaluated, the results of which are shown graphically in FIGS. 1A and 1B.

[C-]#[O+] [carbon monoxide]
saturation point [1]: about 0.0044 g CO/100 g medium | renal function (GFR and Scr) ([2]; given 12-48 hours after the surgery, 0.7 or 2 mg/kg): does not improve renal function | renal function (GFR and Scr) ([2]; given during surgery (intra-operatively), 2 or 3 mg/kg): improves renal function in a dose-dependent manner | calculated GFR on Day 1 and Day 2 versus COHb concentration ([2]; intra-operatively treated subjects, FIG. 2 left panel): increased COHb is related to improved renal function (GFR) | serum creatinine level on Day 2 versus COHb concentration ([2]; intra-operatively treated subjects, FIG. 3 left panel): increased COHb is related to improved renal function (decreased serum creatinine) | calculated GFR on Day 1 and Day 2 versus COHb concentration ([2]; post-operatively treated subjects, FIG. 2 right panel): increased COHb is not related to the improvement of GFR | serum creatinine level on Day 2 versus COHb concentration ([2]; post-operatively treated subjects, FIG. 3 right panel): increased COHb did not improve the renal function (increased serum creatinine) | impact on neurocognitive functions [3]: does not have negative impact on neurocognitive functions; also recorded: unlikely to cause QT prolongation and affect neurocognitive functions | impact on neurocognitive functions ([3]; listed as CO): does not show any negative impact on neurocognitive functions | QT prolongation (QTc change from baseline versus COHb) ([4]; 8 hours after inhalation, up to 3 mg/kg for 1 hour): does not have an effect on QT prolongation; also recorded: unlikely to cause QT prolongation | tolerability ([4]; all dose levels up to 3 mg/kg, intra- and post-operatively dosed): well tolerated | ECG changes ([4]; up to 3 mg/kg): no ECG changes observed on heart rate, PR interval, QRS duration or QTcF duration | new morphological changes or new infarction potentials ([4]; up to 3 mg/kg): no evidence observed on new morphological changes or new infarction potentials | incidence of cardiovascular and neurological AEs ([4]; up to 3 mg/kg, versus placebo): comparable between CO and placebo treated subjects | CL/F, based on net COHb ([5]; 2.0 mg/kg, mean (n=6)): 0.0474 mg/kg/(% * h) | CL/F, based on net COHb ([5]; 3.0 mg/kg, mean (n=5)): 0.0549 mg/kg/(% * h) | dose-dependency of COHb Cmax and AUC (% COHb/Hb) ([5]; post- and intra-operative regimens, 0.7-3 mg/kg, FIGS. 1A and 1B): increased with an increase in the dose of inhaled carbon monoxide in an approximately proportional manner
